One compound from article PMC11943482, “A Chalcone Synthase-like Bacterial Protein Catalyzes Heterocyclic C-Ring Cleavage of Naringenin to Alter Bioactivity Against Nuclear Receptors in Colonic Epithelial Cells” (Metabolites, 2025) can be followed below.

For the assay, the target named is nuclear receptor 4A1 (NR4A1) (Homo sapiens, UniProt P22736). Kind of assay: tryptophan fluorescence quenching with the isolated LBD ([…]). The assay is classed as binding.

A word on the Kd: it is the constant that tells how readily two partners part at equilibrium. Read a high Kd as a looser complex.

nuclear receptor 4A1 (NR4A1), sequence (P22736 360-598 limits assumed): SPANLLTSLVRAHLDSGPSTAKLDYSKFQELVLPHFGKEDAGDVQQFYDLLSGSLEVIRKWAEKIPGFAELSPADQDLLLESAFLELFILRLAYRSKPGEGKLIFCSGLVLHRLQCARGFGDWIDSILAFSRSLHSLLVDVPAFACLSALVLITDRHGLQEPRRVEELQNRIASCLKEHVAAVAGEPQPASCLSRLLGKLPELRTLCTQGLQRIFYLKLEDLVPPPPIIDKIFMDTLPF

For `O=C1C[C@@H](c2ccc(O)cc2)Oc2cc(O)cc(O)c21` [naringenin], binding was characterised by a dissociation constant (Kd) of 4.5 µM.
